Laboratory results taken from ChEMBL document CHEMBL3217422, “Design of membrane targeting tobramycin-based cationic amphiphiles with reduced hemolytic activity” (Medchemcomm, 2013).
Converted amounts (≈) assume the structure as drawn.

Key:
[1] = system: Enterococcus faecalis; assay: Antibacterial activity against Enterococcus faecalis ATCC 29212 assessed as growth inhibition after 24 hrs by double dilution method; assay type: functional; conditions: ATCC 29212, 24 h
[2] = system: Staphylococcus epidermidis; assay: Antibacterial activity against Staphylococcus epidermidis ATCC 12228 assessed as growth inhibition after 24 hrs by double dilution method; assay type: functional; conditions: ATCC 12228, 24 h
[3] = Induction of hemolysis in rat RBC assessed as hemoglobin release at 64 ug/ml after 1 hr by microplate reader analysis; assay type: cell-based, Erythrocyte; conditions: red blood cells, read-out: Activity
[4] = system: Shigella sonnei; assay: Antibacterial activity against O-antigen positive Shigella sonnei clinical isolate 6831 assessed as growth inhibition after 24 hrs by double dilution method; assay type: functional; conditions: isolate 6831, 24 h
[5] = system: Pseudomonas aeruginosa; assay: Antibacterial activity against Pseudomonas aeruginosa ATCC 33347 assessed as growth inhibition after 24 hrs by double dilution method; assay type: functional; conditions: ATCC 33347, 24 h
[6] = system: Streptococcus mutans; assay: Antibacterial activity against Streptococcus mutans UA159 assessed as biofilm growth inhibition after 24 hrs by double dilution method; assay type: functional
[7] = system: Staphylococcus aureus; assay: Antibacterial activity against Methicillin-resistant Staphylococcus aureus assessed as growth inhibition after 24 hrs by double dilution method; assay type: functional
[8] = system: Shigella sonnei; assay: Antibacterial activity against O-antigen negative Shigella sonnei clinical isolate 6831 assessed as growth inhibition after 24 hrs by double dilution method; assay type: functional; conditions: isolate 6831, 24 h
[9] = Antibacterial activity against Streptococcus pyogenes serotype M12 strain MGAS9429 assessed as growth inhibition after 24 hrs by double dilution method; assay type: functional; conditions: MGAS9429, 24 h
[10] = system: Enterococcus; assay: Antibacterial activity against vancomycin-resistant Enterococcus assessed as growth inhibition after 24 hrs by double dilution method; assay type: functional
[11] = Induction of hemolysis in rat RBC assessed as hemoglobin release at 32 ug/ml after 1 hr by microplate reader analysis; assay type: cell-based, Erythrocyte; conditions: red blood cells, read-out: Activity
[12] = system: Staphylococcus epidermidis; assay: Antibacterial activity against Staphylococcus epidermidis ATCC 35984 assessed as biofilm growth inhibition after 24 hrs by double dilution method; assay type: functional
[13] = system: Streptococcus mutans; assay: Antibacterial activity against Streptococcus mutans UA159 assessed as growth inhibition after 24 hrs by double dilution method; assay type: functional; conditions: UA159, 24 h
[14] = system: Staphylococcus aureus; assay: Antibacterial activity against Staphylococcus aureus ATCC 9144 assessed as growth inhibition after 24 hrs by double dilution method; assay type: functional; conditions: ATCC 9144, 24 h
[15] = system: Staphylococcus epidermidis; assay: Antibacterial activity against Staphylococcus epidermidis ATCC 35984 assessed as growth inhibition after 24 hrs by double dilution method; assay type: functional; conditions: ATCC 35984, 24 h
[16] = system: Streptococcus pyogenes serotype M12; assay: Ratio of tobramycin MIC to compound MIC against Streptococcus pyogenes serotype M12 strain MGAS9429 after 24 hrs by double dilution method; assay type: functional

Compound	MIC [1]	MIC [2]	hemolysis at 1 h, 64 ug/ml [3]	MIC [4]	MIC [5]	MBIC [6]	MIC [7]	MIC [8]	MIC [9]	MIC [10]	hemolysis at 1 h, 32 ug/ml [11]	MBIC [12]	MIC [13]	MIC [14]	MIC [15]	Ratio [16]
CCCCCCCCCCCCCCS(=O)(=O)C[C@H]1O[C@H](O[C@@H]2[C@@H](O)[C@H](O[C@H]3O[C@H](CN)[C@@H](O)C[C@H]3N)[C@@H](N)C[C@H]2N)[C@H](O)[C@@H](N)[C@@H]1O	64 µg/mL (≈ 89.9 µM)	16 µg/mL (≈ 22.5 µM)	74.4%	32 µg/mL (≈ 44.9 µM)	128 µg/mL (≈ 180 µM)	4 µg/mL	64 µg/mL (≈ 89.9 µM)	64 µg/mL (≈ 89.9 µM)	4 µg/mL (≈ 5.62 µM)	32 µg/mL (≈ 44.9 µM)	23%	8 µg/mL	4 µg/mL (≈ 5.62 µM)	16 µg/mL (≈ 22.5 µM)	16 µg/mL (≈ 22.5 µM)	
CCCCCCCCCCCCCCCCC(=O)NC[C@H]1O[C@H](O[C@@H]2[C@@H](O)[C@H](O[C@H]3O[C@H](CN)[C@@H](O)C[C@H]3N)[C@@H](N)C[C@H]2N)[C@H](O)[C@@H](N)[C@@H]1O	128 µg/mL (≈ 178 µM)	4 µg/mL (≈ 5.56 µM)	37.9%	32 µg/mL (≈ 44.5 µM)	128 µg/mL (≈ 178 µM)		32 µg/mL (≈ 44.5 µM)	32 µg/mL (≈ 44.5 µM)	8 µg/mL (≈ 11.1 µM)	32 µg/mL (≈ 44.5 µM)			4 µg/mL (≈ 5.56 µM)	8 µg/mL (≈ 11.1 µM)	4 µg/mL (≈ 5.56 µM)	
CCCCCCCCCCCCCCCCSC[C@H]1O[C@H](O[C@@H]2[C@@H](O)[C@H](O[C@H]3O[C@H](CN)[C@@H](O)C[C@H]3N)[C@@H](N)C[C@H]2N)[C@H](O)[C@@H](N)[C@@H]1O	128 µg/mL (≈ 181 µM)	4 µg/mL (≈ 5.65 µM)	37.9%	32 µg/mL (≈ 45.2 µM)	> 128 µg/mL		64 µg/mL (≈ 90.4 µM)	64 µg/mL (≈ 90.4 µM)	4 µg/mL (≈ 5.65 µM)	64 µg/mL (≈ 90.4 µM)			4 µg/mL (≈ 5.65 µM)	16 µg/mL (≈ 22.6 µM)	8 µg/mL (≈ 11.3 µM)	
CCCCCCCCCCCCCCCCc1cn(C[C@H]2O[C@H](O[C@@H]3[C@@H](O)[C@H](O[C@H]4O[C@H](CN)[C@@H](O)C[C@H]4N)[C@@H](N)C[C@H]3N)[C@H](O)[C@@H](N)[C@@H]2O)nn1	128 µg/mL (≈ 172 µM)	4 µg/mL (≈ 5.38 µM)	37.9%	128 µg/mL (≈ 172 µM)	> 128 µg/mL		32 µg/mL (≈ 43.1 µM)	64 µg/mL (≈ 86.1 µM)	16 µg/mL (≈ 21.5 µM)	16 µg/mL (≈ 21.5 µM)			8 µg/mL (≈ 10.8 µM)	16 µg/mL (≈ 21.5 µM)	8 µg/mL (≈ 10.8 µM)	
CCCCCCCCCCCCCCC(=O)NC[C@H]1O[C@H](O[C@@H]2[C@@H](O)[C@H](O[C@H]3O[C@H](CN)[C@@H](O)C[C@H]3N)[C@@H](N)C[C@H]2N)[C@H](O)[C@@H](N)[C@@H]1O	64 µg/mL (≈ 92.6 µM)	4 µg/mL (≈ 5.79 µM)	74.4%	16 µg/mL (≈ 23.2 µM)	128 µg/mL (≈ 185 µM)	4 µg/mL	32 µg/mL (≈ 46.3 µM)	32 µg/mL (≈ 46.3 µM)	4 µg/mL (≈ 5.79 µM)	32 µg/mL (≈ 46.3 µM)	23%	8 µg/mL	4 µg/mL (≈ 5.79 µM)	8 µg/mL (≈ 11.6 µM)	4 µg/mL (≈ 5.79 µM)	16
CCCCCCCCCCCCCCCCS(=O)(=O)C[C@H]1O[C@H](O[C@@H]2[C@@H](O)[C@H](O[C@H]3O[C@H](CN)[C@@H](O)C[C@H]3N)[C@@H](N)C[C@H]2N)[C@H](O)[C@@H](N)[C@@H]1O	64 µg/mL (≈ 86.5 µM)	16 µg/mL (≈ 21.6 µM)	37.9%	32 µg/mL (≈ 43.2 µM)	> 128 µg/mL		32 µg/mL (≈ 43.2 µM)	128 µg/mL (≈ 173 µM)	8 µg/mL (≈ 10.8 µM)	32 µg/mL (≈ 43.2 µM)			8 µg/mL (≈ 10.8 µM)	8 µg/mL (≈ 10.8 µM)	16 µg/mL (≈ 21.6 µM)	
NC[C@H]1O[C@H](O[C@H]2[C@H](O)[C@@H](O[C@H]3O[C@H](CO)[C@@H](O)[C@H](N)[C@H]3O)[C@H](N)C[C@@H]2N)[C@H](N)C[C@@H]1O [TOBRAMYCIN]	> 128 µg/mL	< 1 µg/mL		16 µg/mL (≈ 34.2 µM)	> 128 µg/mL	64 µg/mL	> 128 µg/mL	32 µg/mL (≈ 68.4 µM)	64 µg/mL (≈ 137 µM)	> 128 µg/mL		128 µg/mL	128 µg/mL (≈ 274 µM)	16 µg/mL (≈ 34.2 µM)	128 µg/mL (≈ 274 µM)	
CCCCCCCCCCCCCCSC[C@H]1O[C@H](O[C@@H]2[C@@H](O)[C@H](O[C@H]3O[C@H](CN)[C@@H](O)C[C@H]3N)[C@@H](N)C[C@H]2N)[C@H](O)[C@@H](N)[C@@H]1O	64 µg/mL (≈ 94.1 µM)	4 µg/mL (≈ 5.88 µM)	74.4%	16 µg/mL (≈ 23.5 µM)	128 µg/mL (≈ 188 µM)	4 µg/mL	32 µg/mL (≈ 47.1 µM)	32 µg/mL (≈ 47.1 µM)	2 µg/mL (≈ 2.94 µM)	16 µg/mL (≈ 23.5 µM)	23%	8 µg/mL	2 µg/mL (≈ 2.94 µM)	8 µg/mL (≈ 11.8 µM)	4 µg/mL (≈ 5.88 µM)	16
CCCCCCCCCCCCCCc1cn(C[C@H]2O[C@H](O[C@@H]3[C@@H](O)[C@H](O[C@H]4O[C@H](CN)[C@@H](O)C[C@H]4N)[C@@H](N)C[C@H]3N)[C@H](O)[C@@H](N)[C@@H]2O)nn1	128 µg/mL (≈ 179 µM)	4 µg/mL (≈ 5.59 µM)	74.4%	32 µg/mL (≈ 44.8 µM)	128 µg/mL (≈ 179 µM)	4 µg/mL	64 µg/mL (≈ 89.5 µM)	32 µg/mL (≈ 44.8 µM)	4 µg/mL (≈ 5.59 µM)	32 µg/mL (≈ 44.8 µM)	23%	16 µg/mL	4 µg/mL (≈ 5.59 µM)	8 µg/mL (≈ 11.2 µM)	8 µg/mL (≈ 11.2 µM)	16
